Test results from ChEMBL document CHEMBL2010748, “Structure-Activity Relationship Studies of HIV-1 Integrase Oligonucleotide Inhibitors” (ACS Med Chem Lett, 2011).

Each compound was assayed against Human immunodeficiency virus type 1 integrase (Human immunodeficiency virus 1, UniProt Q7ZJM1) (assay: Inhibition of Human immunodeficiency virus 1 integrase 3'-processing activity expressed in Escherichia coli using 21-mer DNA and Mg2+ after 2 hrs by polyacrylamide gel electrophoresis).
Chain of Human immunodeficiency virus type 1 integrase (Q7ZJM1 whole entry): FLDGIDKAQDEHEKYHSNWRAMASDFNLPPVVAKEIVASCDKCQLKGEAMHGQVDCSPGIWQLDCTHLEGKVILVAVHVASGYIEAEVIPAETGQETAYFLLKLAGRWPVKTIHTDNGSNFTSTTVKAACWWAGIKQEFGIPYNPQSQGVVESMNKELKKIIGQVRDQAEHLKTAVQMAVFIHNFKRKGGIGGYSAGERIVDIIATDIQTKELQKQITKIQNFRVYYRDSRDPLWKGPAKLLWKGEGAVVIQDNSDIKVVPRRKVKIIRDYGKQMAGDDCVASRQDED
Work on `CO[C@@H]1[C@H](O)[C@@H](COP(=O)(O)O[C@H]2[C@@H](OC)[C@H](n3cnc4c(=O)[nH]c(N)nc43)O[C@@H]2COP(=O)(O)O[C@H]2[C@@H](OC)[C@H](n3ccc(=O)[nH]c3=O)O[C@@H]2COP(=O)(O)O[C@H]2[C@@H](OC)[C@H](n3cnc4c(=O)[nH]c(N)nc43)O[C@@H]2COP(=O)(O)O[C@H]2[C@@H](OC)[C@H](n3ccc(=O)[nH]c3=O)O[C@@H]2COP(=O)(O)O[C@H]2[C@@H](OC)[C@H](n3ccc(=O)[nH]c3=O)O[C@@H]2COP(=O)(O)O[C@H]2[C@@H](OC)[C@H](n3ccc(=O)[nH]c3=O)O[C@@H]2COP(=O)(O)O[C@H]2[C@@H](OC)[C@H](n3ccc(=O)[nH]c3=O)O[C@@H]2COP(=O)(O)O[C@H]2[C@@H](OC)[C@H](n3ccc(=O)[nH]c3=O)O[C@@H]2COP(=O)(O)O[C@H]2[C@@H](OC)[C@H](n3cnc4c(=O)[nH]c(N)nc43)O[C@@H]2COP(=O)(O)O[C@H]2[C@@H](OC)[C@H](n3cnc4c(=O)[nH]c(N)nc43)O[C@@H]2COP(=O)(O)OCCCCCCNC(=O)c2cc(Cl)c(C(=O)O)c(-c3c4cc(Cl)c(=O)c(Cl)c-4oc4c(Cl)c(O)c(Cl)cc34)c2Cl)O[C@H]1n1ccc(=O)[nH]c1=O` yielded an IC50 of 0.052 µM.
`CCCCCCCC/C=C\CCCCCCCC(=O)NCCCOCC(O)COP(=O)(O)O[C@H]1C[C@H](n2cc(C)c(=O)[nH]c2=O)O[C@@H]1COP(=O)(O)O[C@H]1C[C@H](n2cnc3c(=O)[nH]c(N)nc32)O[C@@H]1COP(=O)(O)O[C@H]1C[C@H](n2cc(C)c(=O)[nH]c2=O)O[C@@H]1COP(=O)(O)O[C@H]1C[C@H](n2cnc3c(=O)[nH]c(N)nc32)O[C@@H]1COP(=O)(O)O[C@H]1C[C@H](n2cc(C)c(=O)[nH]c2=O)O[C@@H]1COP(=O)(O)O[C@H]1C[C@H](n2cc(C)c(=O)[nH]c2=O)O[C@@H]1COP(=O)(O)O[C@H]1C[C@H](n2cc(C)c(=O)[nH]c2=O)O[C@@H]1COP(=O)(O)O[C@H]1C[C@H](n2cc(C)c(=O)[nH]c2=O)O[C@@H]1COP(=O)(O)O[C@H]1C[C@H](n2cc(C)c(=O)[nH]c2=O)O[C@@H]1COP(=O)(O)O[C@H]1C[C@H](n2cnc3c(=O)[nH]c(N)nc32)O[C@@H]1COP(=O)(O)O[C@H]1C[C@H](n2cnc3c(=O)[nH]c(N)nc32)O[C@@H]1CO` (stereo not given in full) showed an IC50 of 0.2 µM.
In the case of `Cc1cn([C@H]2C[C@H](OP(=O)(O)OC[C@H]3O[C@@H](n4cc(C)c(=O)[nH]c4=O)C[C@@H]3OP(=O)(O)OC[C@H]3O[C@@H](n4cc(C)c(=O)[nH]c4=O)C[C@@H]3OP(=O)(O)OC[C@H]3O[C@@H](n4cnc5c(=O)[nH]c(N)nc54)C[C@@H]3OP(=O)(O)OC[C@H]3O[C@@H](n4cc(C)c(=O)[nH]c4=O)C[C@@H]3OP(=O)(O)OC[C@H]3O[C@@H](n4cnc5c(=O)[nH]c(N)nc54)C[C@@H]3OP(=O)(O)OC[C@H]3O[C@@H](n4cc(C)c(=O)[nH]c4=O)C[C@@H]3O)[C@@H](COP(=O)(O)O[C@H]3C[C@H](n4cc(C)c(=O)[nH]c4=O)O[C@@H]3COP(=O)(O)O[C@H]3C[C@H](n4cc(C)c(=O)[nH]c4=O)O[C@@H]3COP(=O)(O)O[C@H]3C[C@H](n4cnc5c(=O)[nH]c(N)nc54)O[C@@H]3COP(=O)(O)O[C@H]3C[C@H](n4cnc5c(=O)[nH]c(N)nc54)O[C@@H]3COP(=O)(O)OCCCCCCNC(=O)c3cc(Cl)c(C(=O)O)c(-c4c5cc(Cl)c(=O)c(Cl)c-5oc5c(Cl)c(O)c(Cl)cc45)c3Cl)O2)c(=O)[nH]c1=O`, the IC50 is reported as 0.055 µM.
`Cc1cn([C@H]2C[C@H](O)[C@@H](COP(=O)(O)OCCCOP(=O)(O)OCCCOP(=O)(O)OCCCOP(=O)(O)OCCCOP(=O)(O)OCCCOP(=O)(O)OCCCOP(=O)(O)OCCCOP(=O)(O)OCCCOP(=O)(O)OCCCOP(=O)(O)OCCCOP(=O)(O)OCCCCCCNC(=O)c3cc(Cl)c(C(=O)O)c(-c4c5cc(Cl)c(=O)c(Cl)c-5oc5c(Cl)c(O)c(Cl)cc45)c3Cl)O2)c(=O)[nH]c1=O` showed an IC50 of 1.3 µM.
Compound `Cc1cn([C@H]2C[C@H](OP(=O)(O)OC[C@H]3O[C@@H](n4cnc5c(=O)[nH]c(N)nc54)C[C@@H]3OP(=O)(O)OC[C@H]3O[C@@H](n4cc(C)c(=O)[nH]c4=O)C[C@@H]3OP(=O)(O)OC[C@H]3O[C@@H](n4cnc5c(=O)[nH]c(N)nc54)C[C@@H]3OP(=O)(O)OC[C@H]3O[C@@H](n4cc(C)c(=O)[nH]c4=O)C[C@@H]3OP(=O)(O)OCCCCCCNC(=S)Nc3ccc(-c4c5cc(Br)c(=O)c(Br)c-5oc5c(Br)c(O)c(Br)cc45)c(C(=O)O)c3)[C@@H](COP(=O)(O)O[C@H]3C[C@H](n4cc(C)c(=O)[nH]c4=O)O[C@@H]3COP(=O)(S)O[C@H]3C[C@H](n4cc(C)c(=O)[nH]c4=O)O[C@@H]3COP(=O)(S)O[C@H]3C[C@H](n4cc(C)c(=O)[nH]c4=O)O[C@@H]3COP(=O)(S)O[C@H]3C[C@H](n4cc(C)c(=O)[nH]c4=O)O[C@@H]3COP(=O)(O)O[C@H]3C[C@H](n4cnc5c(=O)[nH]c(N)nc54)O[C@@H]3COP(=O)(O)O[C@H]3C[C@H](n4cnc5c(=O)[nH]c(N)nc54)O[C@@H]3CO)O2)c(=O)[nH]c1=O` (stereo not given in full) has an IC50 of 0.022 µM.
For `CO[C@@H]1[C@H](OP(=O)(O)OC[C@H]2O[C@@H](n3ccc(=O)[nH]c3=O)[C@H](OC)[C@@H]2OP(=O)(O)OC[C@H]2O[C@@H](n3ccc(=O)[nH]c3=O)[C@H](OC)[C@@H]2OP(=O)(O)OC[C@H]2O[C@@H](n3cnc4c(=O)[nH]c(N)nc43)[C@H](OC)[C@@H]2OP(=O)(O)OC[C@H]2O[C@@H](n3ccc(=O)[nH]c3=O)[C@H](OC)[C@@H]2OP(=O)(O)OC[C@H]2O[C@@H](n3cnc4c(=O)[nH]c(N)nc43)[C@H](OC)[C@@H]2OP(=O)(O)OC[C@H]2O[C@@H](n3ccc(=O)[nH]c3=O)[C@H](OC)[C@@H]2OP(=O)(O)OCCCCCCNC(=S)Nc2ccc(-c3c4cc(Br)c(=O)c(Br)c-4oc4c(Br)c(O)c(Br)cc34)c(C(=O)O)c2)[C@@H](COP(=O)(O)O[C@H]2[C@@H](OC)[C@H](n3ccc(=O)[nH]c3=O)O[C@@H]2COP(=O)(O)O[C@H]2[C@@H](OC)[C@H](n3ccc(=O)[nH]c3=O)O[C@@H]2COP(=O)(O)O[C@H]2[C@@H](OC)[C@H](n3cnc4c(=O)[nH]c(N)nc43)O[C@@H]2COP(=O)(O)O[C@H]2[C@@H](OC)[C@H](n3cnc4c(=O)[nH]c(N)nc43)O[C@@H]2CO)O[C@H]1n1ccc(=O)[nH]c1=O`, the IC50 was 0.048 µM.
`CCCCCCCC/C=C\CCCCCCCC(=O)NCCCOCC(O)COP(=O)(S)O[C@H]1[C@@H](OC)[C@H](n2ccc(=O)[nH]c2=O)O[C@@H]1COP(=O)(S)O[C@H]1[C@@H](OC)[C@H](n2cnc3c(=O)[nH]c(N)nc32)O[C@@H]1COP(=O)(S)O[C@H]1[C@@H](OC)[C@H](n2ccc(=O)[nH]c2=O)O[C@@H]1COP(=O)(S)O[C@H]1[C@@H](OC)[C@H](n2cnc3c(=O)[nH]c(N)nc32)O[C@@H]1COP(=O)(S)O[C@H]1[C@@H](OC)[C@H](n2ccc(=O)[nH]c2=O)O[C@@H]1COP(=O)(S)O[C@H]1[C@@H](OC)[C@H](n2ccc(=O)[nH]c2=O)O[C@@H]1COP(=O)(S)O[C@H]1[C@@H](OC)[C@H](n2ccc(=O)[nH]c2=O)O[C@@H]1COP(=O)(S)O[C@H]1[C@@H](OC)[C@H](n2ccc(=O)[nH]c2=O)O[C@@H]1COP(=O)(S)O[C@H]1[C@@H](OC)[C@H](n2ccc(=O)[nH]c2=O)O[C@@H]1COP(=O)(S)O[C@H]1[C@@H](OC)[C@H](n2cnc3c(=O)[nH]c(N)nc32)O[C@@H]1COP(=O)(S)O[C@H]1[C@@H](OC)[C@H](n2cnc3c(=O)[nH]c(N)nc32)O[C@@H]1COP(=O)(S)OCCCCCCNC(=O)c1cc(Cl)c(C(=O)O)c(-c2c3cc(Cl)c(=O)c(Cl)c-3oc3c(Cl)c(O)c(Cl)cc23)c1Cl` (stereo not given in full) showed an IC50 of 0.02 µM.
`Cc1cn([C@H]2C[C@H](OP(=O)(O)OC[C@H]3O[C@@H](n4cnc5c(=O)[nH]c(N)nc54)C[C@@H]3OP(=O)(O)OC[C@H]3O[C@@H](n4cc(C)c(=O)[nH]c4=O)C[C@@H]3OP(=O)(O)OC[C@H]3O[C@@H](n4cnc5c(=O)[nH]c(N)nc54)C[C@@H]3OP(=O)(O)OC[C@H]3O[C@@H](n4cc(C)c(=O)[nH]c4=O)C[C@@H]3O)[C@@H](COP(=O)(O)OCCCOP(=O)(O)OCCCOP(=O)(O)OCCCOP(=O)(O)OCCCOP(=O)(O)OCCCOP(=O)(O)OCCCOP(=O)(O)OCCCCCCNC(=O)c3cc(Cl)c(C(=O)O)c(-c4c5cc(Cl)c(=O)c(Cl)c-5oc5c(Cl)c(O)c(Cl)cc45)c3Cl)O2)c(=O)[nH]c1=O` showed an IC50 of 0.25 µM.
For `Cc1cn([C@H]2C[C@H](OP(=O)(S)OC[C@H]3O[C@@H](n4cc(C)c(=O)[nH]c4=O)C[C@@H]3OP(=O)(S)OC[C@H]3O[C@@H](n4cc(C)c(=O)[nH]c4=O)C[C@@H]3OP(=O)(S)OC[C@H]3O[C@@H](n4cnc5c(=O)[nH]c(N)nc54)C[C@@H]3OP(=O)(S)OC[C@H]3O[C@@H](n4cc(C)c(=O)[nH]c4=O)C[C@@H]3OP(=O)(S)OC[C@H]3O[C@@H](n4cnc5c(=O)[nH]c(N)nc54)C[C@@H]3OP(=O)(S)OC[C@H]3O[C@@H](n4cc(C)c(=O)[nH]c4=O)C[C@@H]3OP(=O)(S)OCCCCCCNC(=S)Nc3ccc(-c4c5cc(Br)c(=O)c(Br)c-5oc5c(Br)c(O)c(Br)cc45)c(C(=O)O)c3)[C@@H](COP(=O)(S)O[C@H]3C[C@H](n4cc(C)c(=O)[nH]c4=O)O[C@@H]3COP(=O)(S)O[C@H]3C[C@H](n4cc(C)c(=O)[nH]c4=O)O[C@@H]3COP(=O)(S)O[C@H]3C[C@H](n4cnc5c(=O)[nH]c(N)nc54)O[C@@H]3COP(=O)(S)O[C@H]3C[C@H](n4cnc5c(=O)[nH]c(N)nc54)O[C@@H]3CO)O2)c(=O)[nH]c1=O` (stereo not given in full), the IC50 was 0.018 µM.
`Cc1cn([C@H]2C[C@H](OP(=O)(O)OC[C@H]3O[C@@H](n4cc(C)c(=O)[nH]c4=O)C[C@@H]3OP(=O)(O)OC[C@H]3O[C@@H](n4cc(C)c(=O)[nH]c4=O)C[C@@H]3OP(=O)(S)OC[C@H]3O[C@@H](n4cnc5c(=O)[nH]c(N)nc54)C[C@@H]3OP(=O)(O)OC[C@H]3O[C@@H](n4cc(C)c(=O)[nH]c4=O)C[C@@H]3OP(=O)(S)OC[C@H]3O[C@@H](n4cnc5c(=O)[nH]c(N)nc54)C[C@@H]3OP(=O)(O)OC[C@H]3O[C@@H](n4cc(C)c(=O)[nH]c4=O)C[C@@H]3OP(=O)(S)OCCCCCCNC(=S)Nc3ccc(-c4c5cc(Br)c(=O)c(Br)c-5oc5c(Br)c(O)c(Br)cc45)c(C(=O)O)c3)[C@@H](COP(=O)(O)O[C@H]3C[C@H](n4cc(C)c(=O)[nH]c4=O)O[C@@H]3COP(=O)(O)O[C@H]3C[C@H](n4cc(C)c(=O)[nH]c4=O)O[C@@H]3COP(=O)(O)O[C@H]3C[C@H](n4cnc5c(=O)[nH]c(N)nc54)O[C@@H]3COP(=O)(O)O[C@H]3C[C@H](n4cnc5c(=O)[nH]c(N)nc54)O[C@@H]3CO)O2)c(=O)[nH]c1=O` (stereo not given in full) gave an IC50 of 0.02 µM.
